Measured values reported in article PMC2932742, “Identifying Regulators for EAG1 Channels with a Novel Electrophysiology and Tryptophan Fluorescence Based Screen” (PLoS ONE, 2010).

Biological target: T1, EAG1 (mEAG1) (Mus musculus, UniProt Q60603)
T1 construct: gene Kcnh1
T1 sequence (Q60603 505-702): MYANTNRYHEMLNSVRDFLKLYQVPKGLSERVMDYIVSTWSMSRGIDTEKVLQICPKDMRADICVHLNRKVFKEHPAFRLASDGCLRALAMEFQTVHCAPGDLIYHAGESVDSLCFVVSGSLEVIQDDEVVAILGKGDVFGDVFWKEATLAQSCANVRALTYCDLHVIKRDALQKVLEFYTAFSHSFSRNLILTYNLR
Assay: tryptophan fluorescence titration of purified C-terminal region; gating effect also seen in inside-out patches
Format: binding

O=c1c(O)c(-c2cc(O)c(O)c(O)c2)oc2cc(O)cc(O)c12 [myricetin]
Kd: > 100 µM
